Patent publication US20120040378A1, “Meprobromate Immunoassay” (RANDOX LABORATORIES LIMITED, priority 2010, published 2012)
Converted amounts (≈) assume the structure as drawn.

Tests used:
[1] = tested on: Ig fractions of the antisera raised to Immunogen 4; assay: Competitive ELISA with antibodies raised to Immunogen 4 (Randox immunoassay of the invention); format: binding, sheep; conditions: for CR (cross-reactivity): relative to meprobamate = 100%; for % CR: based on 100% specificity to meprobamate
Procedure: An aqueous solution of Immunogen 4 was formulated with Freund's Complete Adjuvant (FCA) to form an emulsion consisting of 2 mg/ml immunogen in 50% (v/v) FCA. Three sheep were immunised with this emulsion (1° immunisation), 0.25 ml being intramuscularly injected at each of four sites in the rump of each animal. Subsequent immunizations (boosts) contained 1 mg/ml immunogen. All boosts were emulsified in 50% (v/v) Freund's Incomplete Adjuvant (FIA) and were administered in the same manner as the 1° immunisation, at monthly intervals for 1 year. Blood sampling took place 7 to 14 days after each boost. Each sample was processed to produce antiserum, which was further purified by caprylic acid and ammonium sulfate precipitation to yield an immunoglobulin (Ig) fraction. The Ig fraction was evaluated by competitive ELISA microtiter plate assay, as described in Example 16.
The wells of an enhanced binding 96 well polystyrene microtiter plate were coated with a mixture of the Ig fractions of the antisera raised to Immunogen 4, diluted in 10 mM Tris, pH8.5 (125 μl/well). The appropriate antibody coating dilution was determined using standard ELISA checkerboard techniques. The plate was incubated for 2 hours at 37° C., washed 4 times with Tris buffered saline containing Tween 20 (TBST) and tapped dry. Standard solutions of meprobamate, carisoprodol and mebutamate were prepared in TBST at 0, 0.1, 1.0, 5, 10, 25, 50 and 100 ng/ml, and 50 μl of each was added to the appropriate wells.
The conjugate prepared in Example 14 diluted in Tris buffer (pH 7.2) containing EDTA, D-mannitol, sucrose, thimerosal and BSA, was added to each of the wells. The appropriate dilution of conjugate was also determined using standard ELISA checkerboard techniques. The plate was incubated at 25° C. for 1 hour. Excess unbound conjugate was removed by washing 6 times over a 10 minute period with TBST. 125 μl of tetramethylbenzidine (TMB) substrate solution was added to each well of the plate that was then incubated for 20 minutes in the dark at room temperature. The reaction was terminated by addition of 125 μl 0.2M H2SO4 to each well. The absorbance was then measured at 450 nm using a microtiter plate reader.

[2] = tested on: carisoprodol-specific antibody raised from Immunogen 2; assay: Immunoassay with carisoprodol-specific antibody raised from Immunogen 2 (Table 1); format: binding; conditions: Table 1, antibody raised from Immunogen 2 as titled
[3] = tested on: Immunalysis immunoassay antibody; conditions: Table 2, Immunalysis; data from Robertson and Marinetti, 2003; cited from earlier work
[4] = tested on: IDS immunoassay antibody; conditions: Table 2, IDS commercial immunoassay; cited from earlier work
[5] = cited from earlier work
[6] = Table 2, Randox immunoassay, concentration producing 50% B/B0
[7] = competitive ELISA, Hapten-B-HRP conjugate, absorbance 450 nm, standard concentration producing 50% B/B0

| SMILES | CR (cross-reactivity) ([1]; competitive ELISA) | % CR ([1]; Table 2, Randox immunoassay) | IC50 [1, 6] | IC50 [1, 7] | % CR [2] | IC50 [2] | % CR [3] | IC50 [3] | % CR [4] | IC50 [4] | plasma half-life ([5]; plasma) | excreted unchanged in the urine ([5]; urine) | serum half-life ([5]; serum) | time detectable in serum ([5]; serum, not detectable beyond this time (Olsen et al 1994)) | excreted unchanged in urine ([5]; single orally administered carisoprodol tablet (350 mg)) |
| --- | --- | --- | --- | --- | --- | --- | --- | --- | --- | --- | --- | --- | --- | --- | --- |
| CCC(C)C(C)(COC(N)=O)COC(N)=O (centres unmarked) [mebutamate] | 7% | – | – | – | – | – | – | – | – | – | – | – | – | – | – |
| CCCC(C)(COC(N)=O)COC(N)=O [meprobamate] | 100% | 100% | 0.008 µg/mL | 0.00864 µg/mL | 100% | 0.008 µg/mL (≈ 0.0367 µM) | 19% | 0.132 µg/mL (≈ 0.605 µM) | <0.01% | >6 µg/mL | 6 to 16 h | 10-12% | – | – | – |
| CCCC(C)(COC(N)=O)COC(=O)NC(C)C (centres unmarked) [carisoprodol] | 57% | 57% | 0.015 µg/mL | 0.01515 µg/mL | 57% | 0.015 µg/mL (≈ 0.0576 µM) | 100% | 0.025 µg/mL (≈ 0.096 µM) | 100% | 0.0006 µg/mL (≈ 0.0023 µM) | – | – | under 2 hours | ≤ 12 h | less than 1% |
